{"source": "patent US6413998B1", "about": "“Compositions and methods for treating bone deficit conditions” (Osteoscreen, Inc., priority 1995, dated 2002)", "key": {"ICR Swiss white mice": {"tested_on": "ICR Swiss white mice", "experiment": "In vivo assay of effects of compounds on murine calvarial bone growth", "parameters": "species or system mouse", "conditions": "compared to vehicle control; subcutaneous injection over right calvaria, day 14", "procedure": "Male ICR Swiss white mice, aged 4-6 weeks and weighing 13-26 gm, are employed, using 4-5 mice per group. The calvarial bone growth assay is performed as described in PCT application WO 95/24211, incorporated by reference. Briefly, the test compound or appropriate control vehicle is injected into the subcutaneous tissue over the right calvaria of normal mice. Typically, the control vehicle is the vehicle in which the compound was solubilzed, and is PBS containing 5% DMSO or is PBS containing Tween (2 μl/10 ml). The animals are sacrificed on day 14 and bone growth measured by histomorphometry. Bone samples for quantitation are cleaned from adjacent tissues and fixed in 10% buffered formalin for 24-48 hours, decalcified in 14% EDTA for 1-3 weeks, processed through graded alcohols, and embedded in paraffin wax. Three to five μm sections of the calvaria are prepared, and representative sections are selected for histomorphometric assessment of the effects on bone formation and bone resorption. Sections are measured by using a camera lucida attachment to trace directly the microscopic image onto a digitizing plate. Bone changes are measured on sections cut 200 μm apart, over 4 adjacent 1×1 mm fields on both the injected and noninjected sides of the calvaria. […]"}, "BMP2 promoter": {"tested_on": "BMP2 promoter", "experiment": "BMP-2 promoter luciferase reporter high throughput screening in 2T3-BMP-2-LUC cells", "assay_type": "cell-based, mouse", "conditions": "at concentration of maximal activity, about 3 μM", "excerpt": "A rapid throughput screening test for compounds capable of stimulating expression of a reporter gene linked to a BMP promoter (a surrogate for the production of bone morphogenetic factors that are endogenously produced) is described in U.S. application Ser. No. 08/458,434, filed Jun. 2, 1995, the entire contents of which are incorporated herein by reference. This assay is also described as a portion of a study of immortalized murine osteoblasts (derived from a mouse expressing a transgene composed of a BMP2 promoter driving expression of T-antigen) in Ghosh-Choudhery, N. et al. Endocrinology (1996) 137:331-39. […]\nBriefly, the assay utilizes cells transformed permanently or transiently with constructs in which the promoter of a bone morphogenetic protein, specifically BMP2 or BMP4, is coupled to a reporter gene, typically luciferase. These transformed cells are then evaluated for the production of the reporter gene product; compounds that activate the BMP promoter will drive production of the reporter protein, which can be readily assayed. […]\nThe treated cells were incubated for 24 hours at 37° C. and 5% CO2. […] Luminescence was measured on an automated 96-well luminometer, and was expressed as either picograms of luciferase activity per well or as picograms of luciferase activity per microgram of protein. […]"}, "TMC-23 cells": {"tested_on": "TMC-23 cells", "experiment": "Alkaline phosphatase (ALP) activity in chondrogenic cell line TMC-23", "assay_type": "cell-based, mouse", "conditions": "day 2, 10^-9 M, compared to vehicle control", "quoted_text": "For measurement of alkaline phosphatase (ALP) activity, the technique of LF Bonewald et al. J Biol Chem (1992) 267:8943-49, was employed. Briefly, TMC-23 cells were plated in 96 well microtiter plates in DMEM containing 10% FCS at 4×10^3 cells/well. Two days after plating, the cells were confluent and the medium was replaced with fresh medium containing 10% FCS and different concentrations of compounds or recombinant BMP-2. After an additional 2 or 5 days incubation, the plates were washed twice with PBS, and then lysing solution (0.05% Triton X-100) was added (100 μl/well). The cells were lysed by three freeze-thaw cycles of −70° C. (30 min), followed by 37° C. (30 min with shaking). Twenty microliters of cell lysates were assayed with 80 μl of 5 mM p-nitrophenol phosphate in 1.5 M 2-amino-2-methyl-propanol buffer, pH 10.3 (Sigma ALP kit, Sigma Chemical Co., St. Louis, Mo.) for 10 min at 37° C. The reaction was stopped by the addition of 100 μl of 0.5 M NaOH. The spectrophotometric absorbance at 405 nm was compared to that of p-nitrophenol standards to estimate ALP activity in the samples. The protein content of the cell lysates was determined by the Bio-Rad protein assay kit (Bio-Rad, Hercules, Calif.). Specific activity was calculated using these two parameters."}}, "data": [{"smiles": "c1ccc(N=NC2=NNc3ccccc3S2)cc1", "note": "[Compound 59-0008, 3-phenylazo-1H-4,1,2-benzothiadiazine]", "values": [{"measurement": "increase in width of new calvarial bone", "setting": "ICR Swiss white mice", "result": 4, "unit": "fold"}, {"measurement": "response (luciferase luminescence)", "setting": "BMP2 promoter", "result": "approximately 175 light emission units"}, {"measurement": "increase of ALP levels", "setting": "TMC-23 cells", "result": "approximately 3 fold"}]}]}
